Measured values reported in patent US4461895A, “Dibenzo(de,g)quinolines” (Warner-Lambert Company, priority 1981, dated 1984).

Key:
[1] = toxicity in mice (LD50); details: mouse, in vivo
Excerpt: (§1) The following Table summarises some of the animal experimental results obtained: […]

[2] = tested on: cats; experiment: coughing experiment according to Domenjoz on cats (antitussive effect); type: in vivo
Excerpt: The new compounds thereby considerably exceed the known antitussive action of 5,6,6a,7-tetrahydro-1,2,9,10-tetramethoxy-5-methyl-4H-dibenzo(de,g)quinoline (glaucine) with regard to the strength and length of activity.
as §1

Compound	LD50 ([1]; iv) [mg/kg]	LD50 ([1]; po, ig.) [mg/kg]	LD50 ([1]; sc.) [mg/kg]	antitussive effect: duration of cough inhibition ([2]; 1.0 mg./kg., i.v.) [min]	antitussive effect: duration of cough inhibition ([2]; 6.25 mg./kg., id.) [min]	antitussive effect: duration of cough inhibition ([2]; 6.25 mg./kg., sc.) [min]	antitussive effect: duration of cough inhibition ([2]; 2.0 mg./kg., i.v.) [min]	antitussive effect: duration of cough inhibition ([2]; 4.0 mg./kg., id.) [min]	antitussive effect: cough inhibition ([2]; 10.0 mg./kg., sc., result in words)
C=CCN1CCc2cc(OC)c(OC)c3c2C1Cc1cc(OC)c(OC)cc1-3 (single isomer, unassigned; (+)) [Example 1, (+)-6-Allyl-5,6,6a,7-tetrahydro-1,2,9,10-tetramethoxy-4H-dibenzo(de,g)quinoline]	150	~1200	150	20	90	40			
COc1cc2c(cc1OC)-c1c(OC)c(OC)cc3c1C(C2)N(C)CC3 (stereo not drawn) [glaucine]	58.3	531	20				10	40	no cough
